The results in this text go back to ChEMBL document CHEMBL5696442, “Discovery of type II inhibitors of TGFβ-activated kinase 1 (TAK1) and mitogen-activated protein kinase kinase kinase kinase 2 (MAP4K2)” (J Med Chem, 2015).

Each structure is given as a SMILES string.

The target of assay [1] is STE20-like serine/threonine-protein kinase (Homo sapiens) (UniProt Q9H2G2). Kind of assay: Inhibition of SLK Lys2 labeling site harbouring DLKAGNILFTLDGDIKLADFGVSAK in human Huh-7 cell lysate at 1 uM by KiNativ Profiling analysis relative to control. The class given is subcellular.
Assay [2] deals with Ribosomal protein S6 kinase alpha-3 (Homo sapiens) (UniProt P51812). In words: Inhibition of RSK2 domain2 Lys1 labeling site in human Huh-7 cells at 1 uM by KiNativ Profiling analysis relative to control. It is filed as cell-based.
Assay [3] addresses Microtubule-associated serine/threonine-protein kinase 1 (Homo sapiens) (UniProt Q9Y2H9). Kind of assay: Inhibition of MAST1 Lys2 labeling site in human Huh-7 cell lysate at 1 uM by KiNativ Profiling analysis relative to control.
The target in assay [4] is Phosphatidylinositol 4-kinase type 2-beta (Homo sapiens) (UniProt Q8TCG2). Kind of assay: Inhibition of PI4K2B ATP labeling site in human Huh-7 cells at 1 uM by KiNativ Profiling analysis relative to control. It is filed as cell-based.
Assay [5] addresses Serine/threonine-protein kinase 16 (Homo sapiens) (UniProt O75716). Kind of assay: Inhibition of STK16 (unknown origin) at 1 uM by Ambit Kinomescan binding assay relative to control.
The target of assay [6] is Calcium/calmodulin-dependent protein kinase type II subunit gamma (Homo sapiens) (UniProt Q13555). In words: Inhibition of CaMK2g K1 labeling site in human Huh-7 cells at 10 uM by KiNativ Profiling analysis relative to control. It is filed as cell-based.
The target of assay [7] is Microtubule-associated serine/threonine-protein kinase 3 (Homo sapiens) (UniProt O60307). In words: Inhibition of MAST3 Lys2 labeling site in human A-375 cells at 5 uM by KiNativ Profiling analysis relative to control. The class given is cell-based.
The target of assay [8] is AMPK alpha1/alpha2 (Homo sapiens) (UniProt P54646+Q13131). Kind of assay: Inhibition of AMPK alpha 1/2 K1 labeling site in human Huh-7 cells at 10 uM by KiNativ Profiling analysis relative to control. The class given is cell-based.
The target of assay [9] is Mitogen-activated protein kinase kinase kinase 4 (Homo sapiens) (UniProt Q9Y6R4). Kind of assay: Inhibition of MAP3K4 K2 labeling site in human Huh-7 cells at 10 uM by KiNativ Profiling analysis relative to control. The class given is cell-based.
For assay [10], the target named is T1, Serine/threonine-protein kinase Nek1 (Homo sapiens) (UniProt Q96PY6).
T1 sequence (whole entry): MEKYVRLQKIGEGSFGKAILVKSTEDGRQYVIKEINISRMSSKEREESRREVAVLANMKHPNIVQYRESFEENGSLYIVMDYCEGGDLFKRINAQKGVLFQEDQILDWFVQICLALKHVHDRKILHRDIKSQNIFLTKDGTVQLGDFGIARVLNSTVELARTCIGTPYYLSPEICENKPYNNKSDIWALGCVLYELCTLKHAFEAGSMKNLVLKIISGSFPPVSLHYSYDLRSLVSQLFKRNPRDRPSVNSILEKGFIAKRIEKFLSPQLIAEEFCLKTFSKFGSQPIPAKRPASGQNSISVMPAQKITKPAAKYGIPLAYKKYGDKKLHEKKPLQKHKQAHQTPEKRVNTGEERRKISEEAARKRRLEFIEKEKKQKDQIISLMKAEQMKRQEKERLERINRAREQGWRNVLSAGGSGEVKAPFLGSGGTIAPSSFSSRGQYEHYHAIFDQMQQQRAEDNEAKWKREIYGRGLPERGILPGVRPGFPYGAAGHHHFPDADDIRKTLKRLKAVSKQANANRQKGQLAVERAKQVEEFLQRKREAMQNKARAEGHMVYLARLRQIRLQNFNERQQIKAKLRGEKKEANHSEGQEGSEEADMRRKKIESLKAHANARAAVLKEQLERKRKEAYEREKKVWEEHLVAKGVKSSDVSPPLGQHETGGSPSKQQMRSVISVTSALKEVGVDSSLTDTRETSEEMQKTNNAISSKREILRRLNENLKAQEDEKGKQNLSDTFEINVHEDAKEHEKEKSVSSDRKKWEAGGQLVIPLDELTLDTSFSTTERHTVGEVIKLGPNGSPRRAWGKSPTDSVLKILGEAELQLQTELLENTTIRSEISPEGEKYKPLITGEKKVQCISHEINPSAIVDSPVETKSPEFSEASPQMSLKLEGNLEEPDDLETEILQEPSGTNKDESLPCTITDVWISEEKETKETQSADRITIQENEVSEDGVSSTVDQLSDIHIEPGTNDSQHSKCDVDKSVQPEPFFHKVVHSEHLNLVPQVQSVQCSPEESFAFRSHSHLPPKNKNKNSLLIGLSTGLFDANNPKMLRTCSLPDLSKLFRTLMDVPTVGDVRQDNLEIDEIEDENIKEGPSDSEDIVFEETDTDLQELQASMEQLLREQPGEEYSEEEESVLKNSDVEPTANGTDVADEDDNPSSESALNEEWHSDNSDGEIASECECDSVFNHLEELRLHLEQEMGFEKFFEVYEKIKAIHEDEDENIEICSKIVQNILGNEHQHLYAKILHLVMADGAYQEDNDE
Kind of assay: Inhibition of NEK1 K2 labeling site in human Huh-7 cells at 1 uM by KiNativ Profiling analysis relative to control. The class given is cell-based.

Assay [11] has as its target Protein-tyrosine kinase 6 (Homo sapiens) (UniProt Q13882). In words: Inhibition of BRK (unknown origin) at 10 uM by Ambit Kinomescan binding assay relative to control.
Assay [12] has as its target Tyrosine-protein kinase JAK2 (Homo sapiens) (UniProt O60674). In words: Inhibition of JAK2 JH1 catalytic domain (unknown origin) at 10 uM by Ambit Kinomescan binding assay relative to control.

Chain of Protein-tyrosine kinase 6 (Homo sapiens) (Q13882 whole entry, looked up, the tested form may be a part): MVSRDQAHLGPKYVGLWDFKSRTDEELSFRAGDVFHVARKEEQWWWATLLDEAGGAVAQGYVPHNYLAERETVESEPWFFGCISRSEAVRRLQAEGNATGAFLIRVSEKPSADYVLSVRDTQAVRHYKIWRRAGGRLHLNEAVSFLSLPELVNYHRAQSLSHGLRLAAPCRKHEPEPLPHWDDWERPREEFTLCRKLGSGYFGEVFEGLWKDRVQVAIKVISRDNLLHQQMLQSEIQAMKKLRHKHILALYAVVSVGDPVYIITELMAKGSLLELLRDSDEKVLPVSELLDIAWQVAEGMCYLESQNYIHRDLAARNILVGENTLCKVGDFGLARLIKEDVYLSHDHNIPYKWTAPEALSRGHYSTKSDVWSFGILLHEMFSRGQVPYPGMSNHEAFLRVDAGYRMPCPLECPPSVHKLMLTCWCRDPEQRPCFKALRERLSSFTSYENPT
Chain of AMPK alpha1/alpha2 (Homo sapiens) (P54646 whole entry, looked up): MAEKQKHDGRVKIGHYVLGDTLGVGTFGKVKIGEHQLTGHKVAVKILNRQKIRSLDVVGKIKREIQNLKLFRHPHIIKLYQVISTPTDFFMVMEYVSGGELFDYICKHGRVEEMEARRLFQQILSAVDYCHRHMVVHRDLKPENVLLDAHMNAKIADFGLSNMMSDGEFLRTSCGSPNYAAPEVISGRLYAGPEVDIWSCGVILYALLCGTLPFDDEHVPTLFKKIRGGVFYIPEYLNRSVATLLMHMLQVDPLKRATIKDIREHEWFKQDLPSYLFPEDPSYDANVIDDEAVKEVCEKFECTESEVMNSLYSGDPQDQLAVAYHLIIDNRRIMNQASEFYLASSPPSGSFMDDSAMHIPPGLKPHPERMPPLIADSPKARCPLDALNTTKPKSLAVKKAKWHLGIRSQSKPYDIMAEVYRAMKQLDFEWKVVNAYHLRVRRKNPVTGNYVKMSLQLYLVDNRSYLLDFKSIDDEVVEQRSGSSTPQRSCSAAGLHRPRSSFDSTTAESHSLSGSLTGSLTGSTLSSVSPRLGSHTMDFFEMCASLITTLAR
Chain of AMPK alpha1/alpha2 (Homo sapiens) (Q13131 whole entry, looked up): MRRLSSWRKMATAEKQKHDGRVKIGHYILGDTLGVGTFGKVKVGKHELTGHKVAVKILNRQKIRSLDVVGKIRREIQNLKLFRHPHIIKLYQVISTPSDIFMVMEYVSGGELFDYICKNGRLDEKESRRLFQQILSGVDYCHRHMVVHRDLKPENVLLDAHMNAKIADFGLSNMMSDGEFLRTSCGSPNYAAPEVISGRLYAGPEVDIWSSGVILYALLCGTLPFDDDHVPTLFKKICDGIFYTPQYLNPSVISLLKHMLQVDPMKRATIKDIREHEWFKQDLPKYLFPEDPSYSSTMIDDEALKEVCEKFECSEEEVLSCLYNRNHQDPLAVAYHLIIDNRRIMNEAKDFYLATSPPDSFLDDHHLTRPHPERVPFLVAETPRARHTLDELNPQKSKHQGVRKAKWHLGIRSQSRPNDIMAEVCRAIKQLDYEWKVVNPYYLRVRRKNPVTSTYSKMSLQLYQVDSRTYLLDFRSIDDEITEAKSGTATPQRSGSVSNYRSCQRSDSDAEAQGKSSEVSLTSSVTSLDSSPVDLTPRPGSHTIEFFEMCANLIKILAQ
Chain of Serine/threonine-protein kinase 16 (Homo sapiens) (O75716 whole entry): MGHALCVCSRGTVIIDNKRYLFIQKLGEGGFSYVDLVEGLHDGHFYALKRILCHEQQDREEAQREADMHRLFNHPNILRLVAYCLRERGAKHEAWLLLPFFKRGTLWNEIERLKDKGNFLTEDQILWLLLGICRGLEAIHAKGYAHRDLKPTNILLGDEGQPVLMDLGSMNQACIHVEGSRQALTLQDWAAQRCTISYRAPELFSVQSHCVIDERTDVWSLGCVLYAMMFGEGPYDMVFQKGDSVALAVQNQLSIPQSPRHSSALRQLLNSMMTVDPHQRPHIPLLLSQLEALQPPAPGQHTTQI
Chain of Phosphatidylinositol 4-kinase type 2-beta (Homo sapiens) (Q8TCG2 whole entry): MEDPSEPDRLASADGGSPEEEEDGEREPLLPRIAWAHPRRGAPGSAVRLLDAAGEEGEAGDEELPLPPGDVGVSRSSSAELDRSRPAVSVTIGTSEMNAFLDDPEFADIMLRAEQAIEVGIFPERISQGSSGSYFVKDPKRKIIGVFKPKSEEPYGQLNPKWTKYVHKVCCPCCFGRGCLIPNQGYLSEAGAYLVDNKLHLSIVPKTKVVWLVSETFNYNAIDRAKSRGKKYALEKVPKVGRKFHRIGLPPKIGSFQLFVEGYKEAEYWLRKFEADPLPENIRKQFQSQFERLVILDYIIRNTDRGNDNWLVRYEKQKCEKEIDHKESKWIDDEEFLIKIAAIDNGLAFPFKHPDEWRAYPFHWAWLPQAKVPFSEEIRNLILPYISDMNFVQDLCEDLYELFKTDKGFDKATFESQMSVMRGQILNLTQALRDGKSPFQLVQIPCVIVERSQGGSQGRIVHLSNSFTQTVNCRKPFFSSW
Chain of STE20-like serine/threonine-protein kinase (Homo sapiens) (Q9H2G2 whole entry, looked up, the tested form may be a part): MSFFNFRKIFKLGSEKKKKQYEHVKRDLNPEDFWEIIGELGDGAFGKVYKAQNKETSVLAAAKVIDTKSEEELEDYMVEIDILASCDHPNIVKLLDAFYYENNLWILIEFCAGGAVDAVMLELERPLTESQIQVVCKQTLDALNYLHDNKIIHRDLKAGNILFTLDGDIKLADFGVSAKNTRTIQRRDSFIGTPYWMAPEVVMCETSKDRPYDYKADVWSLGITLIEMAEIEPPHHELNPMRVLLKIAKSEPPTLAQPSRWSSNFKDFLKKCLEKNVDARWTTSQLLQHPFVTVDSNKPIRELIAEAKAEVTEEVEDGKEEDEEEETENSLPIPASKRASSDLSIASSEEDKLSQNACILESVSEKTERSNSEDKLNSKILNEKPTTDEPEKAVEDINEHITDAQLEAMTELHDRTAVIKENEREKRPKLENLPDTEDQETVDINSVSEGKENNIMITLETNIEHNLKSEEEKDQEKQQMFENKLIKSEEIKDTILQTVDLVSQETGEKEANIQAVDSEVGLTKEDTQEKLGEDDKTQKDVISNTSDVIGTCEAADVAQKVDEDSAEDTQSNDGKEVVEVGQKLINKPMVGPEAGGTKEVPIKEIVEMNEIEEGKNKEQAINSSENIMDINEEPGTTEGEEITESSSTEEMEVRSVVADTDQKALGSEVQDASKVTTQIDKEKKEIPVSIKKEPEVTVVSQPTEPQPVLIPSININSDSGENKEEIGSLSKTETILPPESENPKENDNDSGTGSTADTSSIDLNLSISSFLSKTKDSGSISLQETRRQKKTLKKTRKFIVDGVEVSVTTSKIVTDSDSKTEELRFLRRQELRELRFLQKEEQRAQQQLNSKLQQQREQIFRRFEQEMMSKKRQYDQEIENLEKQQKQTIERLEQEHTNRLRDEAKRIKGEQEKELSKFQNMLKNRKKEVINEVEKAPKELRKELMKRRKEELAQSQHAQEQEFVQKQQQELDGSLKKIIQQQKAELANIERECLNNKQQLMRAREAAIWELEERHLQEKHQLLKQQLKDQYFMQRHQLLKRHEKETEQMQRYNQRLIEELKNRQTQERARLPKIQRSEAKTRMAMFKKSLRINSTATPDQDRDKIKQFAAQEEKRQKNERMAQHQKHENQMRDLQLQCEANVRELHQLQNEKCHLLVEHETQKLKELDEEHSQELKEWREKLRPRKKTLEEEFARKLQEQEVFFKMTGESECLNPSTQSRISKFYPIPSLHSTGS
Chain of Ribosomal protein S6 kinase alpha-3 (Homo sapiens) (P51812 whole entry, the tested form may be a part): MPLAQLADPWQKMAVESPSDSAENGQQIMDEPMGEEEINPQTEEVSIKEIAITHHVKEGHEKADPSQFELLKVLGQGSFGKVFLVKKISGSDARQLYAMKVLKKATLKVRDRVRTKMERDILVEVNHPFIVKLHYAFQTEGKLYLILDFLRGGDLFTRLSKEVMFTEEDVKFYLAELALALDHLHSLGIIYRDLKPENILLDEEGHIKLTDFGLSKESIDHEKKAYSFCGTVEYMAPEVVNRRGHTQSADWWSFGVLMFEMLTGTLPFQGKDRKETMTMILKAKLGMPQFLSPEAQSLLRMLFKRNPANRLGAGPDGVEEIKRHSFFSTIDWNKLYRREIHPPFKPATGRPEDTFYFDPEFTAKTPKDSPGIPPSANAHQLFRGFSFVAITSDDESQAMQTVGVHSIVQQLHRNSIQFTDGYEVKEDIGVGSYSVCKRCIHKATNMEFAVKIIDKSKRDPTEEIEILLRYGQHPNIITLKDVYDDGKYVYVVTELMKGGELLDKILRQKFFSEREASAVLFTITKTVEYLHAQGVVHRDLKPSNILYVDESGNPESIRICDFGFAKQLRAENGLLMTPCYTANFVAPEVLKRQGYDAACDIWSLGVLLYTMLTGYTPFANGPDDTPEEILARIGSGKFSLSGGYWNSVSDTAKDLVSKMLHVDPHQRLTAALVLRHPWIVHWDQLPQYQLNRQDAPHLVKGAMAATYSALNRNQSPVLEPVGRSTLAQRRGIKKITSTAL
Chain of Calcium/calmodulin-dependent protein kinase type II subunit gamma (Homo sapiens) (Q13555 whole entry): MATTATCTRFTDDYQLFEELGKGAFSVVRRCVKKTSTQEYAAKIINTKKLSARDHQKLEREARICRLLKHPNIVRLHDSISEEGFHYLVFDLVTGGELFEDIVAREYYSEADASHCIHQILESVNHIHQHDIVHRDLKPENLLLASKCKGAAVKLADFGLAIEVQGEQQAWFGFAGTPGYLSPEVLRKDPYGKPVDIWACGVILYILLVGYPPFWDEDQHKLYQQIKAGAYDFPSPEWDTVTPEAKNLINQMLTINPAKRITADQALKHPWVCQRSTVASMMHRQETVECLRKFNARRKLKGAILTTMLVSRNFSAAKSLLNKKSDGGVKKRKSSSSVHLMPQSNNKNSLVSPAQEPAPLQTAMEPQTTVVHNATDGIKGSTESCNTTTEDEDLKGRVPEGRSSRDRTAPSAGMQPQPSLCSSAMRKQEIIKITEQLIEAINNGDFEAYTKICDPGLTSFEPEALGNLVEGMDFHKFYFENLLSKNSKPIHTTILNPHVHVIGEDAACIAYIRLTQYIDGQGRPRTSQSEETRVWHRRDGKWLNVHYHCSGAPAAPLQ

For orientation: inhibition means the change of the read-out against control, counted positive when it falls. Take `CNc1cc(Oc2cc(C(=O)Nc3cc(N4CCN(C)CC4)cc(C(F)(F)F)c3)ccc2C)ncn1`: the inhibition in assay [1] was 30.2%; in [2], 4.1%; in assay [3], 7.2%; in [4], 16%.
In the case of `CCN1CCN(Cc2ccc(NC(=O)c3ccc(C)c(/C=C/c4cnc5[nH]ccc5c4OC)c3)cc2C(F)(F)F)CC1`, the inhibition in [5] amounted to 100%.
Regarding `CCN1CCN(Cc2ccc(NC(=O)c3ccc(C)c(Oc4ccnc5[nH]ccc45)c3)cc2C(F)(F)F)CC1`, the inhibition is 0% in [6]; 4.8% in [7]; 34.6% in assay [8]; 5.2% in assay [9]; -5.8% in assay [10]; 28% in [11]. Moreover, the inhibition in assay [12] is 11%.
